Earlier results on one substance are cited in patent US4127541A, “Novel decapeptides, intermediates therefor, and compositions and methods employing said decapeptides” (priority 1977, dated 1978).

The test system of data set [1] is brain opiate receptor sites.
The conditions of data set [2]: injected directly into the brain of the rat.

“H-Tyr-Gly-Gly-Phe-Met-OH [methionine enkephalin]”: the “binding to partially purified brain opiate receptor sites” value in data set [1] is on record as “binds stereo-specifically”. Besides, the analgesic activity entry in data set [2] is given as “weak analgesic agent of short duration”.
